Test results: article PMC3420011, “Small-Molecule Inhibition of BRDT for Male Contraception” (Cell, 2012)

Target: T1, BRDT (Mus musculus, UniProt Q91Y44)
T1 construct: mBRDT(1) 23–133, first (N-terminal) bromodomain
Test: AlphaScreen competition with H4Kac4 peptide (IC50); ITC
Format: binding

Cc1sc2c(c1C)C(c1ccc(Cl)cc1)=N[C@@H](CC(=O)OC(C)(C)C)c1nnc(C)n1-2 [(+)-JQ1]
IC50: 10 nM
